Patent US6562758B1 (priority 1999, dated 2003)
Where “and” joins values, the source holds several entries; their conditions need not be identical. Equal values may be shown once. Read-outs that look alike come from different tables or passages of the source.

Key:
Conditions in all cases: in vivo
kidney beans [1] = tested on: kidney beans; set-up: species or system kidney bean
cotton plants [2] = tested on: cotton plants; set-up: species or system cotton (Gossypium hirsutum)
kidney beans [3] = tested on: kidney beans; set-up: species or system kidney bean; remark: listed apart in the source
cotton plants [4] = tested on: cotton plants; set-up: species or system cotton (Gossypium hirsutum); remark: listed apart in the source
red kidney bean plants [5] = tested on: red kidney bean plants
cotton plants [6] = tested on: cotton plants; set-up: species or system cotton (Gossypium hirsutum); remark: listed apart in the source
red kidney bean plants [7] = tested on: red kidney bean plants; remark: listed apart in the source
cotton plants [8] = tested on: cotton plants; set-up: species or system cotton (Gossypium hirsutum); remark: listed apart in the source
potato plants = tested on: potato plants

## CCOC(=O)/C(Cl)=C/c1cc(N2C(=O)C3=C(CCCC3)C2=O)ccc1Cl [BAS 123W, cinidon-ethyl]
Kidney beans [1]
  % Regrowth at 21 DAT: 124% and 110% and 73%
  regrowth: tended to promote regrowth

## C/C(=N\NC(=O)Nc1cc(F)cc(F)c1)c1ncccc1C(=O)O [DFP, diflufenzopyr]
Cotton plants [2]
  % Regrowth Avg.: 7% and 6%
Kidney beans [1]
  regrowth: reduced regrowth as compared to the untreated check
Kidney beans [3]
  % Defoliation 15 DAT: 59%
Cotton plants [4]
  % Defoliation: 23% and 40% and 39% and 21%

## O=P(O)(O)CCCl [ETP, (2-chloroethyl)phosphonic acid]
Red kidney bean plants [5]
  % Regrowth: 10%
Cotton plants [2]
  % Regrowth Avg.: 51%
Cotton plants [6]
  % Defoliation: 31% and 49%
Red kidney bean plants [7]
  % Defoliation: 18% and 20%
Kidney beans [3]
  % Defoliation 15 DAT: 28%
Cotton plants [8]
  % Regrowth 20 DAT: 36.3%
Cotton plants [4]
  % Defoliation: 58% and 78%

## C[n+]1ccc(-c2cc[n+](C)cc2)cc1 [Paraquat, paraquat]
Potato plants
  Percent Defoliation: 76% and 44%
